Reference: the supplement of paper PMC10307832

Columns and labels:
Assay in all cases: relative viability (nuclei count vs DMSO), 5 days (fraction); higher = more cells survive
BAY61-3606 + Luminespib = compound: COC1=C(C=C(C=C1)C2=CC3=NC=CN3C(=N2)NC4=C(C=CC=N4)C(=O)N)OC [BAY61-3606] + CCNC(=O)c1noc(-c2cc(C(C)C)c(O)cc2O)c1-c1ccc(CN2CCOCC2)cc1 [Luminespib] (partner 0.01 µM)
Outline: (§1)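 One day after seeding in 1536-well plates, lung cancer cell lines were dosed by pin tool. Dosing was either single-drug or a fixed anchor-drug dose plus five library-drug doses (not always all listed) in √10 steps. After 5 days, nuclei were stained in one fix-and-stain step and counted on 4× images, and relative viability is the nuclei count of treated wells over that of vehicle wells, given as the median of duplicate plates.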

BAY61-3606 + Olaparib = compound: COC1=C(C=C(C=C1)C2=CC3=NC=CN3C(=N2)NC4=C(C=CC=N4)C(=O)N)OC [BAY61-3606] + O=C(c1cc(Cc2n[nH]c(=O)c3ccccc23)ccc1F)N1CCN(C(=O)C2CC2)CC1 [Olaparib] (partner 8 µM)
Outline: as §1

Doxorubicin + Pictilisib = compound: COc1cccc2c1C(=O)c1c(O)c3c(c(O)c1C2=O)C[C@@](O)(C(=O)CO)C[C@@H]3O[C@H]1C[C@H](N)[C@H](O)[C@H](C)O1 [Doxorubicin] + CS(=O)(=O)N1CCN(Cc2cc3nc(-c4cccc5[nH]ncc45)nc(N4CCOCC4)c3s2)CC1 [Pictilisib] (partner 1 µM)
Outline: as §1

Doxorubicin + AZD7762 = compound: COc1cccc2c1C(=O)c1c(O)c3c(c(O)c1C2=O)C[C@@](O)(C(=O)CO)C[C@@H]3O[C@H]1C[C@H](N)[C@H](O)[C@H](C)O1 [Doxorubicin] + NC(=O)Nc1cc(-c2cccc(F)c2)sc1C(=O)N[C@H]1CCCNC1 [AZD7762] (partner 0.2 µM)
Outline: as §1

Work on EKVX yielded a relative viability (BAY61-3606 + Luminespib; first compound 0.02 µM) of 0.999, a relative viability (BAY61-3606 + Luminespib; first compound 0.06325 µM) of 0.927 and a relative viability (BAY61-3606 + Luminespib; first compound 0.2 µM) of 0.844. For the same cell line, the relative viability (BAY61-3606 + Luminespib; first compound 0.6325 µM) was 0.897, the relative viability (BAY61-3606 + Luminespib; first compound 2 µM) was 0.843 and the relative viability (BAY61-3606 + Olaparib; first compound 0.02 µM) was 0.99. The relative viability (BAY61-3606 + Olaparib; first compound 0.06325 µM) was 0.999, the relative viability (BAY61-3606 + Olaparib; first compound 0.2 µM) was 0.798 and the relative viability (BAY61-3606 + Olaparib; first compound 0.6325 µM) was 0.91. It also gave a relative viability (BAY61-3606 + Olaparib; first compound 2 µM) of 0.782, a relative viability (Doxorubicin + Pictilisib; first compound 0.001 µM) of 0.453 and a relative viability (Doxorubicin + Pictilisib; first compound 0.003162 µM) of 0.444. For the same cell line, the relative viability (Doxorubicin + Pictilisib; first compound 0.01 µM) was 0.399, the relative viability (Doxorubicin + Pictilisib; first compound 0.03162 µM) was 0.434 and the relative viability (Doxorubicin + Pictilisib; first compound 0.1 µM) was 0.429. It also gave a relative viability (Doxorubicin + AZD7762; first compound 0.001 µM) of 0.719, a relative viability (Doxorubicin + AZD7762; first compound 0.003162 µM) of 0.844 and a relative viability (Doxorubicin + AZD7762; first compound 0.01 µM) of 0.794. It also gave a relative viability (Doxorubicin + AZD7762; first compound 0.03162 µM) of 0.725 and a relative viability (Doxorubicin + AZD7762; first compound 0.1 µM) of 0.486.

Work on NCI-H1666 yielded a relative viability (BAY61-3606 + Luminespib; first compound 0.02 µM) of 1.12, a relative viability (BAY61-3606 + Luminespib; first compound 0.06325 µM) of 0.998 and a relative viability (BAY61-3606 + Luminespib; first compound 0.2 µM) of 1.13. For the same cell line, the relative viability (BAY61-3606 + Luminespib; first compound 0.6325 µM) was 1.08, the relative viability (BAY61-3606 + Luminespib; first compound 2 µM) was 1.05 and the relative viability (BAY61-3606 + Olaparib; first compound 0.02 µM) was 0.767. For the same cell line, the relative viability (BAY61-3606 + Olaparib; first compound 0.06325 µM) was 0.827, the relative viability (BAY61-3606 + Olaparib; first compound 0.2 µM) was 0.748 and the relative viability (BAY61-3606 + Olaparib; first compound 0.6325 µM) was 0.754. It also gave a relative viability (BAY61-3606 + Olaparib; first compound 2 µM) of 0.724, a relative viability (Doxorubicin + Pictilisib; first compound 0.001 µM) of 0.376 and a relative viability (Doxorubicin + Pictilisib; first compound 0.003162 µM) of 0.37. It also gave a relative viability (Doxorubicin + Pictilisib; first compound 0.01 µM) of 0.309, a relative viability (Doxorubicin + Pictilisib; first compound 0.03162 µM) of 0.237 and a relative viability (Doxorubicin + Pictilisib; first compound 0.1 µM) of 0.271. The relative viability (Doxorubicin + AZD7762; first compound 0.001 µM) was 0.909, the relative viability (Doxorubicin + AZD7762; first compound 0.003162 µM) was 0.762 and the relative viability (Doxorubicin + AZD7762; first compound 0.01 µM) was 0.882. For the same cell line, the relative viability (Doxorubicin + AZD7762; first compound 0.03162 µM) was 0.795 and the relative viability (Doxorubicin + AZD7762; first compound 0.1 µM) was 0.596.

Work on NCI-H2170 yielded a relative viability (BAY61-3606 + Luminespib; first compound 0.02 µM) of 0.796, a relative viability (BAY61-3606 + Luminespib; first compound 0.06325 µM) of 0.717 and a relative viability (BAY61-3606 + Luminespib; first compound 0.2 µM) of 0.761. It also gave a relative viability (BAY61-3606 + Luminespib; first compound 0.6325 µM) of 0.852, a relative viability (BAY61-3606 + Luminespib; first compound 2 µM) of 0.506 and a relative viability (BAY61-3606 + Olaparib; first compound 0.02 µM) of 0.59. The relative viability (BAY61-3606 + Olaparib; first compound 0.06325 µM) was 0.62, the relative viability (BAY61-3606 + Olaparib; first compound 0.2 µM) was 0.571 and the relative viability (BAY61-3606 + Olaparib; first compound 0.6325 µM) was 0.626. It also gave a relative viability (BAY61-3606 + Olaparib; first compound 2 µM) of 0.435, a relative viability (Doxorubicin + Pictilisib; first compound 0.001 µM) of 0.234 and a relative viability (Doxorubicin + Pictilisib; first compound 0.003162 µM) of 0.302. The relative viability (Doxorubicin + Pictilisib; first compound 0.01 µM) was 0.352, the relative viability (Doxorubicin + Pictilisib; first compound 0.03162 µM) was 0.316 and the relative viability (Doxorubicin + Pictilisib; first compound 0.1 µM) was 0.38. It also gave a relative viability (Doxorubicin + AZD7762; first compound 0.001 µM) of 0.825, a relative viability (Doxorubicin + AZD7762; first compound 0.003162 µM) of 0.95 and a relative viability (Doxorubicin + AZD7762; first compound 0.01 µM) of 0.792. For the same cell line, the relative viability (Doxorubicin + AZD7762; first compound 0.03162 µM) was 0.626 and the relative viability (Doxorubicin + AZD7762; first compound 0.1 µM) was 0.961.

NCI-H1734 gave a relative viability (BAY61-3606 + Luminespib; first compound 0.02 µM) of 0.26, a relative viability (BAY61-3606 + Luminespib; first compound 0.06325 µM) of 0.179 and a relative viability (BAY61-3606 + Luminespib; first compound 0.2 µM) of 0.188. For the same cell line, the relative viability (BAY61-3606 + Luminespib; first compound 0.6325 µM) was 0.278, the relative viability (BAY61-3606 + Luminespib; first compound 2 µM) was 0.167 and the relative viability (BAY61-3606 + Olaparib; first compound 0.02 µM) was 0.604. For the same cell line, the relative viability (BAY61-3606 + Olaparib; first compound 0.06325 µM) was 0.555, the relative viability (BAY61-3606 + Olaparib; first compound 0.2 µM) was 0.561 and the relative viability (BAY61-3606 + Olaparib; first compound 0.6325 µM) was 0.541. For the same cell line, the relative viability (BAY61-3606 + Olaparib; first compound 2 µM) was 0.378, the relative viability (Doxorubicin + Pictilisib; first compound 0.001 µM) was 0.464 and the relative viability (Doxorubicin + Pictilisib; first compound 0.003162 µM) was 0.498. For the same cell line, the relative viability (Doxorubicin + Pictilisib; first compound 0.01 µM) was 0.389, the relative viability (Doxorubicin + Pictilisib; first compound 0.03162 µM) was 0.321 and the relative viability (Doxorubicin + Pictilisib; first compound 0.1 µM) was 0.267. The relative viability (Doxorubicin + AZD7762; first compound 0.001 µM) was 0.515, the relative viability (Doxorubicin + AZD7762; first compound 0.003162 µM) was 0.58 and the relative viability (Doxorubicin + AZD7762; first compound 0.01 µM) was 0.539. For the same cell line, the relative viability (Doxorubicin + AZD7762; first compound 0.03162 µM) was 0.318 and the relative viability (Doxorubicin + AZD7762; first compound 0.1 µM) was 0.283.
